In patent publication US8921376B2, “Pyrrolopyridines useful as inhibitors of protein kinase” (Vertex Pharmaceuticals Incorporated, priority 2005, dated 2014):

Key:
Assay type in all cases: biochemical
JAK2 = JAK2 (Homo sapiens, UniProt O60674); test: JAK2 inhibition assay (as Example 3 with JAK-2 enzyme)
Summary of the method: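 In HEPES pH 7.4 buffer with 10 mM MgCl2, 1 mM DTT, 25 mM NaCl and 0.01% BSA, JAK2 enzyme phosphorylated poly(Glu)4Tyr (final 15 μM) using 33P-ATP (final 12 μM) for 20 min at room temperature (25 °C). Reactions stopped with TCA; incorporated 33P measured by scintillation after filtration.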

JAK3 = biological target: T1, JAK3 (Homo sapiens, UniProt P52333); test: JAK3 inhibition assay (33P incorporation into poly(Glu)4Tyr)
T1 sequence (P52333 1-1124): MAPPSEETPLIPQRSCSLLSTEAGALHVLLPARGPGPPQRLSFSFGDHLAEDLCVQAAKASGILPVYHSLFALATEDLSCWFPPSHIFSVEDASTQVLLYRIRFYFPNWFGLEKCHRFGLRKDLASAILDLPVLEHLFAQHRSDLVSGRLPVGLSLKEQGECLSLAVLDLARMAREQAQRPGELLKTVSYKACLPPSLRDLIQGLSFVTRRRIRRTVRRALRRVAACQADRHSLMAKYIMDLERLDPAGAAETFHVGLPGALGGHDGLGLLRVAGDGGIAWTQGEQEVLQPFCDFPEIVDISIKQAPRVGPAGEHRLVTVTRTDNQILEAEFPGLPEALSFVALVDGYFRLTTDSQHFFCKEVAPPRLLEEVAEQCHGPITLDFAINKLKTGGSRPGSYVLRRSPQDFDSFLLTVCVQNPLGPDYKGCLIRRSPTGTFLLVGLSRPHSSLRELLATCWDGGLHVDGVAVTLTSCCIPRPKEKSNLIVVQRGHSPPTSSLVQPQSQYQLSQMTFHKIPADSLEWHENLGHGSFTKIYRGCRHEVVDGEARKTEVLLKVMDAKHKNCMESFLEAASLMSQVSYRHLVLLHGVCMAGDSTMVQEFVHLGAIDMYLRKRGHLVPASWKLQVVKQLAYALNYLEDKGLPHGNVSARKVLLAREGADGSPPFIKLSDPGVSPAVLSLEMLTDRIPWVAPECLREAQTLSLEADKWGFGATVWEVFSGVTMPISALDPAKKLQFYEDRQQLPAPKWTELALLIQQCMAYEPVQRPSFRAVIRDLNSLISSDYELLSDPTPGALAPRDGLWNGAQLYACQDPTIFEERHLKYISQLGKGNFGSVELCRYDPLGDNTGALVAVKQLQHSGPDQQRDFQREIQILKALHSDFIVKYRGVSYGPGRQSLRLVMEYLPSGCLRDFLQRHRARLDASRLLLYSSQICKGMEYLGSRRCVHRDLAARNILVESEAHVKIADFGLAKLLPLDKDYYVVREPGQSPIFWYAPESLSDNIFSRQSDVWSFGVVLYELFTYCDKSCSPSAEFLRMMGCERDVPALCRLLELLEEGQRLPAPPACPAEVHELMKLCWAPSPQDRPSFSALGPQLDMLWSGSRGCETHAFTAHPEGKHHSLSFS
Summary of the method: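 After TCA quench and filter harvest, scintillation counting of 33P measured phosphorylation of poly(Glu)4Tyr (1 μM) by 1 nM JAK3. The 20-min, 25° C. reaction contained 5 μM ATP (200 μCi/μmole) in pH 7.4 HEPES buffer with 10 mM MgCl2.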

ROCK I = ROCK I (Homo sapiens, UniProt Q13464); test: ROCK-I inhibition assay (radioactive enzyme assay, MBP substrate)
Chain of ROCK I (Q13464 whole entry): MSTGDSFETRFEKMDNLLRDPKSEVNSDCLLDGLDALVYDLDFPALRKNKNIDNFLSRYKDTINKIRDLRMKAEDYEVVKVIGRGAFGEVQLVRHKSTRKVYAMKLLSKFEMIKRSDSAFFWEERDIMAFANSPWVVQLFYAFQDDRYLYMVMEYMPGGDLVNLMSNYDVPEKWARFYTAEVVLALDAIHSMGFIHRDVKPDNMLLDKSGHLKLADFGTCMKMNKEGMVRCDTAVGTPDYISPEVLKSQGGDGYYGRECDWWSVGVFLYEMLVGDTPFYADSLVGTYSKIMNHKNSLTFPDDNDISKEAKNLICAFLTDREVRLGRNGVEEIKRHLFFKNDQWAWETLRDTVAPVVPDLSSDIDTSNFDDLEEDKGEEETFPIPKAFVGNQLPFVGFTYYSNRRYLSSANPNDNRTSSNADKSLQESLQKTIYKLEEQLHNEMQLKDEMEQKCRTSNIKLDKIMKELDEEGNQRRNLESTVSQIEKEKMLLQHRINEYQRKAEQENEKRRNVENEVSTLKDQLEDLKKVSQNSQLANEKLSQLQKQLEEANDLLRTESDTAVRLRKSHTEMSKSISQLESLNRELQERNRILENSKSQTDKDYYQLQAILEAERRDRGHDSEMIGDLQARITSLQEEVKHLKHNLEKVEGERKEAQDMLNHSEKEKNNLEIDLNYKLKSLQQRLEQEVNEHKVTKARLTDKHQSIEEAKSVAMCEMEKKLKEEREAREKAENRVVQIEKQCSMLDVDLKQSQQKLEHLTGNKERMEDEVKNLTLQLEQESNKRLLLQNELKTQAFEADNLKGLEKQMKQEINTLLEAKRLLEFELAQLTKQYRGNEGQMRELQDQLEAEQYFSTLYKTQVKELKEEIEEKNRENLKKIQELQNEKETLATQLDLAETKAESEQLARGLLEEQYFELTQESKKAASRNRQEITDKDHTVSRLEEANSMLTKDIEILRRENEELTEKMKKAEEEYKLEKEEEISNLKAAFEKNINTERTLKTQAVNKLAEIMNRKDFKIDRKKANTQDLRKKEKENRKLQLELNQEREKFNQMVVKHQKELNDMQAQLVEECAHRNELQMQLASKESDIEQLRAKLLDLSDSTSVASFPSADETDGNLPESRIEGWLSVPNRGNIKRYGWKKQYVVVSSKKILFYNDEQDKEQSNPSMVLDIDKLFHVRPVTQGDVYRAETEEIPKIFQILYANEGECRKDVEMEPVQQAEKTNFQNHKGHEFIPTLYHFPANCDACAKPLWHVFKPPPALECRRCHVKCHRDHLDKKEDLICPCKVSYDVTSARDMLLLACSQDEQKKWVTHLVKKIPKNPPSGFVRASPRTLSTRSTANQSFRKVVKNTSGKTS
Summary of the method: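 Human ROCK at 5 nM phosphorylated 27 μM myelin basic protein with 13 μM [γ-33P]ATP (final) in HEPES pH 7.5, MgCl2, NaCl, DTT and 1.5% DMSO. Reactions ran 2 h at room temperature before TCA quench and filter-plate scintillation counting. After background subtraction, data were fit to give Ki(app).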

[1] = enzyme inhibition, Ki(app), Table 5
[2] = Table 6, enzyme inhibition data (Ki)

Chain of JAK2 (O60674 whole entry): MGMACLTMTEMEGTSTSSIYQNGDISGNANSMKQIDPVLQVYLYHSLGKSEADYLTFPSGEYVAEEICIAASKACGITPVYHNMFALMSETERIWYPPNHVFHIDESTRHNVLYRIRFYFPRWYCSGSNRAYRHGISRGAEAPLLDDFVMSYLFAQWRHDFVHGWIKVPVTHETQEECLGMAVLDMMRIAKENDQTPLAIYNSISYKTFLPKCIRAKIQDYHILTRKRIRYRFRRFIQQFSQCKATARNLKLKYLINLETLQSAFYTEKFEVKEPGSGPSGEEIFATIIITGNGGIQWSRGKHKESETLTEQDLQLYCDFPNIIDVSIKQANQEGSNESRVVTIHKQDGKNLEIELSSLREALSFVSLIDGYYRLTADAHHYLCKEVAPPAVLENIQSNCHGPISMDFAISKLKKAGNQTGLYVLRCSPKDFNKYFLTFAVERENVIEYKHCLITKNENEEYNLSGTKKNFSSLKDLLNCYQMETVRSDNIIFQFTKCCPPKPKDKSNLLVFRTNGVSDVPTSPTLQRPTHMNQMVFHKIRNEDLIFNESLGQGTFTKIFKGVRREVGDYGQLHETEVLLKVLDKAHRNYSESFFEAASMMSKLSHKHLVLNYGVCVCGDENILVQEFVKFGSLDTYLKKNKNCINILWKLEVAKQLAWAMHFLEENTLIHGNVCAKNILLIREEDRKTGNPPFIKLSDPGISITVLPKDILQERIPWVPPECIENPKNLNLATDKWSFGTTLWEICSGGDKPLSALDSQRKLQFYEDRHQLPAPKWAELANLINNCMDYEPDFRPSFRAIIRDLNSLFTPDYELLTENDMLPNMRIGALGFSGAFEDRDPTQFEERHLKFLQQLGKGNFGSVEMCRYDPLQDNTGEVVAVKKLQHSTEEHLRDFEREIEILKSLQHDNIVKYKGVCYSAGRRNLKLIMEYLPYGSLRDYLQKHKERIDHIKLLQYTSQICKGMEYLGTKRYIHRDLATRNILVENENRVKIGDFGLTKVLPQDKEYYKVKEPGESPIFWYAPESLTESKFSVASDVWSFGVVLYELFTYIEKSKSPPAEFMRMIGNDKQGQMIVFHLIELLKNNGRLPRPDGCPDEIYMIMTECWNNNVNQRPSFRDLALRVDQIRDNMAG

| SMILES | Ki (JAK2; enzyme inhibition, Table 5) [nM] | Ki (JAK3; enzyme inhibition, Table 5) [nM] | Ki (ROCK I; [1]) [µM] | Ki (JAK2; [2]) [nM] | Ki (JAK3; [2]) [nM] | Ki (ROCK I; [2]) [µM] |
| --- | --- | --- | --- | --- | --- | --- |
| CC(C)(C(=O)CC#N)c1cccc(-c2ccnc3[nH]ccc23)n1 [compound 125, 4-(6-(1H-pyrrolo[2,3-b]pyridin-4-yl)pyridin-2-yl)-4-methyl-3-oxopentanitrile] | < 500 | < 500 | < 0.5 | – | – | – |
| Clc1cnc2[nH]ccc2c1NC1CCCCC1 [compound 126, 5-chloro-N-cyclohexyl-1H-pyrrolo[2,3-b]pyridin-4-amine] | < 500 | < 500 | < 0.5 | – | – | – |
| Clc1cnc2[nH]ccc2c1NC1CCCC1 [compound 127, 5-chloro-N-cyclopentyl-1H-pyrrolo[2,3-b]pyridin-4-amine] | < 500 | < 500 | < 0.5 | – | – | – |
| C[C@H](Nc1ccnc(-c2ccnc3[nH]ccc23)n1)C(=O)NC1CC1 [compound 130] | 500 to 5000 | 500 to 5000 | 0.5 to 5 | – | – | – |
| CC(C)(Nc1nc(-c2ccnc3[nH]ccc23)ncc1F)C(=O)NCC(F)(F)F [compound 131] | 500 to 5000 | < 500 | 0.5 to 5 | – | – | – |
| CC(C)(Nc1nc(-c2ccnc3[nH]ccc23)nc2ccccc12)C(=O)NCC(F)(F)F [compound 132] | > 5000 | 500 to 5000 | 0.5 to 5 | – | – | – |
| c1cc(-c2ccoc2)c2cc[nH]c2n1 [compound 133, 4-Furan-3-yl-1H-pyrrolo[2,3-b]pyridine] | < 500 | 500 to 5000 | < 0.5 | – | – | – |
| C[C@H](Nc1nc(-c2ccnc3[nH]ccc23)nc2ccccc12)C(=O)NCC(F)(F)F [compound 134] | > 5000 | 500 to 5000 | 0.5 to 5 | – | – | – |
| Clc1cnc2[nH]ccc2c1-c1ccco1 [compound 136] | – | – | – | < 500 | < 500 | < 0.5 |
| Cc1ccc(-c2c(Cl)cnc3[nH]ccc23)s1 [compound 140] | – | – | – | < 500 | < 500 | 0.5 to 5 |
| Clc1ccc(-c2c(Cl)cnc3[nH]ccc23)s1 [compound 141] | – | – | – | < 500 | < 500 | > 4 |
| Cc1csc(-c2c(Cl)cnc3[nH]ccc23)c1 [compound 144] | – | – | – | < 500 | < 500 | 0.5 to 5 |
| Cc1noc(C)c1-c1c(Cl)cnc2[nH]ccc12 [compound 146] | – | – | – | > 5000 | > 5000 | > 4 |
| Clc1cnc2[nH]ccc2c1NC1CCCCCC1 [compound 149] | – | – | – | < 500 | < 500 | < 0.5 |

Now from value to compound:

| Ki (JAK2; enzyme inhibition, Table 5) [nM] | Ki (JAK3; enzyme inhibition, Table 5) [nM] | Ki (ROCK I; [1]) [µM] | Ki (JAK2; [2]) [nM] | Ki (JAK3; [2]) [nM] | Ki (ROCK I; [2]) [µM] | SMILES |
| --- | --- | --- | --- | --- | --- | --- |
| > 5000 | > 5000 | 0.5 to 5 | – | – | – | CC(=O)Nc1ccccc1-c1c(Cl)cnc2[nH]ccc12 [compound 128] |
| > 5000 | > 5000 | 0.5 to 5 | – | – | – | Nc1ccccc1-c1c(Cl)cnc2[nH]ccc12 [compound 129] |
| – | – | – | < 500 | < 500 | < 0.5 | Clc1cnc2[nH]ccc2c1-c1cccs1 [compound 135] |
| – | – | – | < 500 | < 500 | > 4 | Clc1cnc2[nH]ccc2c1-c1cc2ccccc2s1 [compound 137] |
| – | – | – | < 500 | < 500 | > 4 | Clc1cnc2[nH]ccc2c1-c1cc2ccccc2o1 [compound 138] |
| – | – | – | < 500 | < 500 | 0.5 to 5 | Clc1cnc2[nH]ccc2c1-c1ccoc1 [compound 139] |
| – | – | – | < 500 | < 500 | 0.5 to 5 | Clc1cnc2[nH]ccc2c1-c1csc2ccccc12 [compound 142] |
| – | – | – | 500 to 5000 | > 5000 | > 4 | CC(C)(C)OC(=O)n1cccc1-c1c(Cl)cnc2[nH]ccc12 [compound 143] |
| – | – | – | < 500 | < 500 | > 4 | CC(=O)c1ccc(-c2c(Cl)cnc3[nH]ccc23)s1 [compound 145] |
| – | – | – | > 5000 | > 5000 | > 4 | CC(C)(C)OC(=O)n1c(-c2c(Cl)cnc3[nH]ccc23)cc2ccccc21 [compound 147] |
| – | – | – | 500 to 5000 | 500 to 5000 | > 4 | O=S(=O)(c1ccccc1)n1cc(-c2c(Cl)cnc3[nH]ccc23)c2ccccc21 [compound 148] |
